According to patent publication US10323007B1, “N2N N4-disubstituted quinazoline-2,4-diamines and uses thereof” (University of South Florida, priority 2016, dated 2019):
Converted amounts (≈) assume the structure as drawn. Like-named read-outs stand apart in the source and are kept apart here.

Legend:
A. baumannii 1649 = test: minimal bactericidal concentration (MBC) assay, strain 1649; assay type: cell-based; conditions: Acinetobacter baumannii, Table 8, read-out: MBC90 1649
From the text: (§1) Lead quinazolines 4, 5, 26, 29, 27, and 30 were selected to be further evaluated for antimicrobial effects. The first assay utilized was a minimal bactericidal concentration (MBC) assay, to assess whether leads compounds were bacteriostatic or bactericidal. The six lead agents were screened to identify their MBC90 towards each of the six A. baumannii isolates used in the SAR studies (Table 8), however for simplicity only the representative data for isolate 1646 is detailed below (Table 6). […] Further to this, we were able to obtain complete eradication of bacterial growth for these two compounds at 1 μM for 24 and 5 μM for 25.
(§2) MIC and MBC assays were performed in this study as documented by us previously.^17,23,24,25 The A. baumannii strains used are detailed in Table 7.

A. baumannii 1651 = test: minimal bactericidal concentration (MBC) assay, strain 1651; assay type: cell-based; conditions: Acinetobacter baumannii, Table 8, read-out: MBC90 1651
From the text: as §1, §2

A. baumannii 1650 = test: minimal bactericidal concentration (MBC) assay, strain 1650; assay type: cell-based; conditions: Acinetobacter baumannii, Table 8, read-out: MBC90 1650
From the text: as §1, §2

human HepG2 cells = assay type: cell-based
Experimental: Cytotoxicity assays were performed using human HepG2 cells (human liver epithelial with hepatocellular carcinoma), as described by us previously.^17,24 Cells were cultured in Dulbecco's modified eagle medium (DMEM), supplemented with 10% fetal bovine serum and 1% penicillin-streptomycin for 3 days at 37° C. and 5% CO2. Cells were then diluted to 1×10^5 ml^−1 using fresh DMEM and added to 96 well tissue culture plates at a volume of 100 μL. Plates were incubated for 24 hours at 37° C. and 5% CO2, allowing the cells to adhere to the plastic. […] Plates were then incubated for 48 hours at 37° C. and 5% CO2. After 48 hours the DMEM was removed and 100 μL of new media was added containing MTT (3-(4, 5-dimethylthiazol-2-yl)-2, 5-diphenyltetrazolium bromide), followed by incubation for four hours at 37° C. and 5% CO2. […] Lead compounds were solvated in 100% DMSO for these studies, which served as the negative control. LD50 values were determined for each compound by comparison to vehicle only controls.

A. baumannii 1646 = test: MIC assay, strain 1646; assay type: cell-based, Acinetobacter baumannii
Experimental: as §2

[1] = tested on: A. baumannii 1650 biofilm; test: biofilm eradication determination assay, strain 1650; assay type: cell-based, Acinetobacter baumannii; conditions: 90% biofilm eradication, Table 8
Experimental: These assays were performed as described by us previously,^26,24 as follows. Each of the A. baumannii strains were grown overnight in Mueller Hinton Broth (MHB). The next day these were used to seed fresh MHB to an OD600 of 0.5, with 150 μL then added to the wells of a 96 well plate and grown for 24 hours at 37° C. After 24 hours, the planktonic bacteria were carefully removed and fresh MHB was added with increasing concentrations of lead quinazolines. After incubation at 37° C. for 24 hours, planktonic cells were removed and biofilms were washed three times with phosphate buffered saline (PBS). Biofilms were then resuspended in PBS and plated for cell viability on tryptic soy agar. Biofilm recovery was assessed compared to no drug controls, and determined as percent eradication. This was used to determine MBEC90 values (Minimal Biofilm Eradication Concentration), where the viability of cells within the biofilm was reduced by 90%.

A. baumannii 1403 = test: minimal bactericidal concentration (MBC) assay, strain 1403; assay type: cell-based; conditions: Acinetobacter baumannii, Table 8, read-out: MBC90 1403
From the text: as §1, §2

Q: Which MBC (A. baumannii 1649) does the source give for `CNc1nc(NCc2ccccc2)nc2ccc(C)cc12` [Compound 5, N^2-Benzyl-N^4,6-dimethylquinazoline-2,4-diamine] here?
A: 9.3 µM (≈ 2.59 µg/mL)

Q: What about the MBC (A. baumannii 1651) of the same molecule?
A: 1.5 µM (≈ 0.418 µg/mL)

Q: What about the MBC (A. baumannii 1650) of the same molecule?
A: 27 µM (≈ 7.52 µg/mL)

Q: And the HepG2 cell viability (human HepG2 cells; at 25 μM (highest concentration tested))?
A: 44%

Q: And the “LD50(HepG2)” value (human HepG2 cells; human, 48 h)?
A: 22 µM

Q: And the MIC (A. baumannii 1646; Acinetobacter baumannii, Table 6, representative data for isolate 1646, read-out: MIC)?
A: 1 µM (≈ 0.278 µg/mL)

Q: And the MIC (A. baumannii 1646; Acinetobacter baumannii, strain 1646, Table 2, read-out: 1646 MIC)?
A: 2 µM (≈ 0.557 µg/mL)

Q: And the MIC (A. baumannii 1646; Acinetobacter baumannii, strain 1646, lead quinazolines, Table 8, read-out: MIC 1646)?
A: 1 µM (≈ 0.278 µg/mL)

Q: And the MIC (A. baumannii 1646; strain 1646, Tables 1, 3, 4, 5 and footnotes, read-out: 1646 MIC)?
A: 2 µM (≈ 0.557 µg/mL)

Q: What about the “MBEC90 1650” value [1] of the same molecule?
A: 21 µM

Q: And the MBC (A. baumannii 1403)?
A: 30 µM (≈ 8.35 µg/mL)
